We go through 12 compounds from patent publication US20250115591A1, “NOVEL SULFONAMIDE CARBOXAMIDE COMPOUNDS” (INFLAZOME LIMITED, priority 2017, published 2025).

Where a name gives a salt, the structure may show the parent alone.

Sequence of NLRP3 (Q96P20 whole entry): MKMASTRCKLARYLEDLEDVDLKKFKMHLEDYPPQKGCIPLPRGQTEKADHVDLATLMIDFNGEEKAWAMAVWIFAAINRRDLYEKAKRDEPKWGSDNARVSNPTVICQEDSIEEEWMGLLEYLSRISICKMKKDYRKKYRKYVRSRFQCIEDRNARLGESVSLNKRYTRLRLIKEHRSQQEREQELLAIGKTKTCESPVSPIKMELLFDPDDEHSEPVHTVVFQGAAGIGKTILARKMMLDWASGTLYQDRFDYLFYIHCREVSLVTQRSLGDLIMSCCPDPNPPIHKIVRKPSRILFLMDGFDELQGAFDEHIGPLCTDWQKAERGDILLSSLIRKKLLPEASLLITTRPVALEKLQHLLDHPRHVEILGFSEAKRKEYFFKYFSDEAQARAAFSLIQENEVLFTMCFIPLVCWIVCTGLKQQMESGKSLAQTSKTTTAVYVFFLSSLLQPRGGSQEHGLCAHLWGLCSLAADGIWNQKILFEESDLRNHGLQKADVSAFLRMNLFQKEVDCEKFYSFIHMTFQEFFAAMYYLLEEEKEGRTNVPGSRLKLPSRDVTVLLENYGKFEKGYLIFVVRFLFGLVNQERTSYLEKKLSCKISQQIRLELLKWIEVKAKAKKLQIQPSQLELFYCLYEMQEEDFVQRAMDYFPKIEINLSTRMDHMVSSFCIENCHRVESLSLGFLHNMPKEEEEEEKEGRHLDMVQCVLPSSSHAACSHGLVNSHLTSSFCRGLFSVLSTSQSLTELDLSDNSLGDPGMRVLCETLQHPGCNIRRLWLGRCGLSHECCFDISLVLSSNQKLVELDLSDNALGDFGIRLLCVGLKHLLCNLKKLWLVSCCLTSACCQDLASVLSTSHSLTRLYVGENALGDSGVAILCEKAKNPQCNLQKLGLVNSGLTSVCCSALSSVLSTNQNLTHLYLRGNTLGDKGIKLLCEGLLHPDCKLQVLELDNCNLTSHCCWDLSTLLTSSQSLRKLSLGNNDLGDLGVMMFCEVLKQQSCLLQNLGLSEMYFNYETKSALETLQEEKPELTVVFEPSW

The target of this test is NLRP3 (Homo sapiens (Human), UniProt Q96P20). Kind of test: THP-1 cells pyroptosis assay (LPS + nigericin, resazurin read-out). The format is cell-based. The following applies: 1 μg/ml LPS, 5 μM nigericin. The protocol:
THP-1 cells (ATCC #TIB-202) were grown in RPMI containing L-glutamine (Gibco 15 #11835) supplemented with 1 mM sodium pyruvate (Sigma #S8636) and penicillin (100 units/ml)/streptomycin (0.1 mg/ml) (Sigma #P4333) in 10% Fetal Bovine Serum (FBS) (Sigma #F0804). The cells were routinely passaged and grown to confluency (˜10^6 cells/ml). On the day of the experiment, THP-1 cells were harvested and resuspended into RPMI medium (without FBS). The cells were then counted and viability (>90%) checked by Trypan blue (Sigma #T8154). Appropriate dilutions were made to give a concentration of 625,000 cells/ml. To this diluted cell solution was added LPS (Sigma #[4524) to give a 1 μg/ml Final Assay Concentration (FAC). 40μ of the final preparation was aliquoted into each well of a 96-well plate. The plate thus prepared was used for compound screening.
The following method step-by-step assay was followed for compound screening. • 1. Seed THP-1 cells (25,000 cells/well) containing 1.0 μg/ml LPS in 40μ of RPMI medium (without FBS) in 96-well, black walled, clear bottom cell culture plates coated with poly-D-lysine (VWR #734-0317) • 2. Add 5 μl compound (8 points half-log dilution, with […]) or vehicle (DMSO 0.1% FAC) to the appropriate wells • 3. Incubate for 3 hrs at 37° C. and 5% CO2 • 4. Add 5 μl nigericin (Sigma #N7143) (FAC 5 μM) to all wells • 5. Incubate for 1 hr at 37° C. and 5% CO2 • 6. At the end of the incubation period, spin plates at 300×g for 3 mins and remove supernatant • 7. Then add 50 μl of resazurin (Sigma #R7017) (FAC 100 μM resazurin in RPMI medium without FBS) and incubate plates for a further 1-2 hrs at 37° C. and 5% CO2 • 8. Plates were read in an Envision reader at Ex 560 nm and Em 590 nm • 9. IC50 data is fitted to a non-linear regression equation (log inhibitor vs response-variable slope 4-parameters)
In general terms: The colour change of resazurin is a common sign of viable cells or microbes.
By IC50 is commonly meant the point on the concentration scale where inhibition reaches its midpoint. `O=C(Nc1c2c(cc3c1CCC3)CCC2)NS(=O)(=O)C1CN(C2CS(=O)(=O)C2)C1` [Example 120, 1-(1,1-Dioxidothietan-3-yl)-N-((1,2,3,5,6,7-hexahydro-s-indacen-4-yl)carbamoyl)azetidine-3-sulfonamide, potassium salt]: the IC50 lay in the range of 1000 to 10000 nM.

As to `Cn1ccnc1CN1CC(S(=O)(=O)NC(=O)Nc2c3c(cc4c2CCC4)CCC3)C1` [Example 123, N-((1,2,3,5,6,7-Hexahydro-s-indacen-4-yl)carbamoyl)-1-((1-methyl-1H-imidazol-2-yl)methyl)azetidine-3-sulfonamide, potassium salt], the IC50 lay in the range of 1000 to 10000 nM.

`C/C(CN1CC(S(=O)(=O)NC(=O)Nc2c3c(cc4c2CCC4)CCC3)C1)=N/O` [Example 128, N-((1,2,3,5,6,7-Hexahydro-s-indacen-4-yl)carbamoyl)-1-(2-(hydroxyimino)propyl)azetidine-3-sulfonamide, potassium salt]: the IC50 was 1000 to 10000 nM.

With `C[Si](C)(C)CN1CC(S(=O)(=O)NC(=O)Nc2c3c(cc4c2CCC4)CCC3)C1` [Example 136, N-((1,2,3,5,6,7-Hexahydro-s-indacen-4-yl)carbamoyl)-1-((trimethylsilyl)methyl)azetidine-3-sulfonamide, potassium salt], the IC50 lay in the range of 1000 to 10000 nM.

Regarding `CC1(CCN2CC(S(=O)(=O)NC(=O)Nc3c4c(cc5c3CCC5)CCC4)C2)N=N1` [Example 139, N-((1,2,3,5,6,7-Hexahydro-s-indacen-4-yl)carbamoyl)-1-(2-(3-methyl-3H-diazirin-3-yl)ethyl)azetidine-3-sulfonamide, potassium salt], the IC50 was 1000 to 10000 nM.

As for `Cn1cc(CN2CC(S(=O)(=O)NC(=O)Nc3c4c(cc5c3CCC5)CCC4)C2)ccc1=O` [Example 140, N-((1,2,3,5,6,7-Hexahydro-s-indacen-4-yl)carbamoyl)-1-((1-methyl-6-oxo-1,6-dihydropyridin-3-yl)methyl)azetidine-3-sulfonamide, potassium salt], the IC50 was below 1000 nM.

In the case of `O=C(Nc1c2c(cc3c1CCC3)CCC2)NS(=O)(=O)C1CN(CCC2CCOC2)C1` (stereo not drawn) [Example 142, N-((1,2,3,5,6,7-Hexahydro-s-indacen-4-yl)carbamoyl)-1-(2-(tetrahydrofuran-3-yl)ethyl)azetidine-3-sulfonamide, potassium salt], the IC50 is below 1000 nM.

For `CCN1CC(S(=O)(=O)NC(=O)Nc2c3c(cc4c2CCC4)CCC3)CC1=O` (stereo not drawn) [Example 147, 1-Ethyl-N-((1,2,3,5,6,7-hexahydro-s-indacen-4-yl)carbamoyl)-5-oxopyrrolidine-3-sulfonamide, potassium salt], the IC50 fell in the range of 1000 to 10000 nM.

`COC1CN(C)CC1S(=O)(=O)NC(=O)Nc1c2c(cc3c1CCC3)CCC2` (stereo not drawn) [Example 149, N-((1,2,3,5,6,7-Hexahydro-s-indacen-4-yl)carbamoyl)-4-methoxy-1-methylpyrrolidine-3-sulfonamide, potassium salt]: the IC50 is 1000 to 10000 nM.

As to `CCN1CC(OC)C(S(=O)(=O)NC(=O)Nc2c3c(cc4c2CCC4)CCC3)C1` (stereo not drawn) [Example 150, 1-Ethyl-N-((1,2,3,5,6,7-hexahydro-s-indacen-4-yl)carbamoyl)-4-methoxypyrrolidine-3-sulfonamide, potassium salt], the IC50 was below 1000 nM.

In the case of `CC(C)(C)[Si](C)(C)OCCN1CC(S(=O)(=O)NC(=O)Nc2c3c(cc4c2CCC4)CCC3)C1` [Example 151, 1-(2-((tert-Butyldimethylsilyl)oxy)ethyl)-N-((1,2,3,5,6,7-hexahydro-s-indacen-4-yl)carbamoyl)azetidine-3-sulfonamide, potassium salt], the IC50 was below 1000 nM.

Consider `CC(C)c1cc(F)cc(-c2ccnc(C#N)c2)c1NC(=O)NS(=O)(=O)C1CN(C(C)C)C1` [Example 157, N-((2-(2-Cyanopyridin-4-yl)-4-fluoro-6-isopropylphenyl)carbamoyl)-1-isopropylazetidine-3-sulfonamide], for which the IC50 lay within 1000 to 10000 nM.
